Experimental data published in patent US8415342B2, “Besifloxacin ophthalmic composition for the treatment or control of infection” (Bausch & Lomb Incorporated, priority 2008, dated 2013).

Assays:
Type in all cases: cell-based
[1] = tested on: baseline pathogens of bacterial conjunctivitis patients; experiment: MIC of baseline clinical trial isolates, Studies 373, 433, 434 (all species)
CDC coryneform group G = experiment: MIC of clinical trial isolates, Studies 373, 433, 434; conditions: N 29
Procedure: (§1) PFGE testing was performed per standard procedures.
(§2) The antibacterial susceptibility profile of each Visit 1 bacterial isolate was determined for besifloxacin and other antimicrobials.

H. influenzae = experiment: as above; conditions: Haemophilus influenzae, all phenotypes, N 344
Procedure: as §1, §2

S. mitis group = experiment: as above; conditions: Streptococcus mitis group, N 45
Procedure: as §1, §2

S. pneumoniae = experiment: as above; conditions: Streptococcus pneumoniae, all phenotypes, N 302
Procedure: as §1, §2

Streptococcus oralis = experiment: as above; conditions: N 18
Procedure: as §1, §2

S. aureus = experiment: as above; conditions: Staphylococcus aureus, all phenotypes, N 190
S. epidermidis = experiment: as above; conditions: Staphylococcus epidermidis, all phenotypes, N 111
[2] = tested on: Corynebacterium pseudodiphtheriticum; experiment: as above; conditions: N 8
Corynebacterium striatum = experiment: as above; conditions: N 8
Staphylococcus hominis = experiment: as above; conditions: N 9
[3] = tested on: Staphylococcus lugdunensis; experiment: as above; conditions: N 8
Streptococcus mitis = experiment: as above; conditions: Streptococcus mitis (listed separately from S. mitis group), N 20
Procedure: PFGE testing was performed per standard procedures. […] Analysis Populations

Streptococcus salivarius = experiment: as above; conditions: N 9

Row | Compound | MIC50 ([1]; All organisms, N 1324) | MIC90 ([1]; All organisms, N 1324) | MIC50 ([1]; Gram-negative, N 438) | MIC90 ([1]; Gram-negative, N 438) | MIC50 ([1]; Gram-positive, N 886) | MIC90 ([1]; Gram-positive, N 886) | MIC50 (CDC coryneform group G) | MIC90 (CDC coryneform group G) | MIC50 (H. influenzae) | MIC90 (H. influenzae) | MIC50 (S. mitis group) | MIC90 (S. mitis group) | MIC Range (S. mitis group) | MIC50 (S. pneumoniae) | MIC90 (S. pneumoniae) | MIC50 (Streptococcus oralis) | MIC90 (Streptococcus oralis) | MIC Range (Streptococcus oralis) | MIC50 (S. aureus) | MIC90 (S. aureus) | also measured
1 | CC1COc2c(N3CCN(C)CC3)c(F)cc3c(=O)c(C(=O)O)cn1c23 (stereo not shown) [OFLOX] | 0.5 µg/mL | 2 µg/mL | 0.03 µg/mL | 0.25 µg/mL | 1 µg/mL | 4 µg/mL | 0.125 µg/mL | 2 µg/mL | 0.03 µg/mL | 0.06 µg/mL | 2 µg/mL | 4 µg/mL | 0.25 µg/mL | 1 µg/mL | 2 µg/mL | 2 µg/mL | 4 µg/mL | 0.125 µg/mL | 0.5 µg/mL | >8 µg/mL | MIC50 (S. epidermidis): 0.5 µg/mL; MIC90 (S. epidermidis): >8 µg/mL; MIC Range (S. epidermidis): 0.25 µg/mL; MIC50 [2]: 1 µg/mL; MIC Range [2]: 0.125 to 2 µg/mL; MIC50 (Corynebacterium striatum): 0.125 µg/mL; MIC50 (Staphylococcus hominis): 0.25 µg/mL; MIC Range (Staphylococcus hominis): 0.25 µg/mL; MIC50 [3]: 1 µg/mL; MIC50 (Streptococcus mitis): 2 µg/mL; MIC90 (Streptococcus mitis): 2 µg/mL; MIC Range (Streptococcus mitis): 1 to 4 µg/mL; MIC50 (Streptococcus salivarius): 2 µg/mL; MIC Range (Streptococcus salivarius): 2 to 4 µg/mL
2 | COc1c(N2CCNC(C)C2)c(F)cc2c(=O)c(C(=O)O)cn(C3CC3)c12 (stereo not shown) [GATI] | 0.125 µg/mL | 0.5 µg/mL | 0.015 µg/mL | 0.25 µg/mL | 0.25 µg/mL | 1 µg/mL | 0.06 µg/mL | 0.5 µg/mL | 0.015 µg/mL | 0.03 µg/mL | 0.5 µg/mL | 0.5 µg/mL | 0.06 to 2 µg/mL | 0.25 µg/mL | 0.5 µg/mL | 0.5 µg/mL | 1 µg/mL | 0.03 to 1 µg/mL | 0.125 µg/mL | 4 µg/mL | MIC Range ([1]; Gram-negative, N 438): ≦0.004-8 μg/mL; MIC Range (CDC coryneform group G): 0.03 to 8 µg/mL; MIC Range (H. influenzae): ≦0.004-0.5 μg/mL; MIC Range (S. pneumoniae): 0.125 to 1 µg/mL; MIC50 (S. epidermidis): 0.125 µg/mL; MIC90 (S. epidermidis): 2 µg/mL; MIC50 [2]: 0.5 µg/mL; MIC Range [2]: 0.06 to 0.5 µg/mL; MIC50 (Corynebacterium striatum): 0.03 µg/mL; MIC Range (Corynebacterium striatum): 0.015 to 2 µg/mL; MIC50 (Staphylococcus hominis): 0.125 µg/mL; MIC Range (Staphylococcus hominis): 0.06 to 2 µg/mL; MIC50 [3]: 0.25 µg/mL; MIC Range [3]: 0.25 to 2 µg/mL; MIC50 (Streptococcus mitis): 0.5 µg/mL; MIC90 (Streptococcus mitis): 1 µg/mL; MIC Range (Streptococcus mitis): 0.25 to 1 µg/mL; MIC50 (Streptococcus salivarius): 0.5 µg/mL; MIC Range (Streptococcus salivarius): 0.5 to 2 µg/mL
